Tests used:
Format in all cases: cell-based
[1] = tested on: S. aureus SA-1199B (NorA overproducing); test: MIC of fluoroquinolones with and without EPI
Excerpt: (§1) A variety of strains may be used in these experiments, including, but not limited to, S. aureus ATCC 29213, E. faecalis ATCC 29212, and S. pneumoniae, S. aureus strains SA-1199, SA-1199B, SA-8325-4, and SA-K2068. S. aureus ATCC 29213, E. faecalis ATCC 29212, and S. pneumoniae ATCC 10015 were obtained from the American Type Culture Collection (Manassas, Va.). S. aureus strains SA-1199 (clinical isolate, susceptible), SA-1199B (SA-1199, NorA overproducing, also has A116E GrlA mutation), SA-8325-4 (NCTC 8325 cured of prophages), SA-K2068 (SA-8325-4, non-NorA multidrug efflux pump overproducing mutation) were obtained from Glenn Kaatz (Kaatz et al., “Identification and characterization of a novel efflux-related multidrug resistance phenotype in Staphylococcus aureus”, J. Antimicrob. Chemother. 50:833-838 (2002); 1993; Kaatz et al., “Phenothiazines and thioxanthenes inhibit multidrug efflux pump activity in Staphylococcus aureus”, Antimicrob. Agents Chemother. 47:719-726, Kaatz et al., “Efflux-mediated fluoroquinolone resistance in Staphylococcus aureus. Antimicrob. Agents Chemother.”, 37:1086-1094, 1993)).
(§2) 3% sterile laked horse blood (Quad Five, Ryegate, Mont.) was added to assays for E. faecalis and S. Pneumoniae. A final concentration of 1% DMSO was present in all assays.
Recent more hydrophobic fluoroquinolones such as gatifloxacin and moxifloxacin are less well recognized by NorA; however, recently one other pump in S. aureus has been described which also recognizes hydrophobic fluoroquinolones (Kaatz et al. 2002, supra). To investigate the potential of A-106 and C-9 to block the efflux of several fluoroquinolones in cells with constituitively over-expressed efflux pumps, we used S. aureus strains SA-1199B and K2068 (Table 3). […] Kaatz et al., “Phenothiazines and thioxanthenes inhibit multidrug efflux pump activity in Staphylococcus aureus”, Antimicrob. Agents Chemother. 47:719-726 (2003).

S. aureus ATCC 29213 = test: MIC by NCCLS microdilution, antibacterial agents with and without EPI
Outline: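 Efflux pump inhibitors were combined at fixed concentrations with antibiotics from several classes and tested against Staphylococcus aureus ATCC 29213 to compare minimum inhibitory concentrations with and without inhibitor. The inhibitor level was tied to its minimal effective concentration for ethidium bromide, a general efflux pump substrate. All assays contained a final concentration of 1% DMSO.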

E. faecalis ATCC 29212 = test: MIC by NCCLS microdilution, EtBr/EPI with and without EPI
Protocol: as §2
(§3) EtBr is a general substrate for many different efflux pumps in bacteria. Markham et al., “Multiple Novel Inhibitors of the NorA Multidrug Transporter of Staphylococcus aureus”, Antimicrob. Agents Chemother. 43:2404-2408 (1999). Since EtBr is a non-specific DNA intercalator, the only known mechanism of resistance to EtBr is via efflux. Markham et al., “Multiple Novel Inhibitors of the NorA Multidrug Transporter of Staphylococcus aureus”, Antimicrob. Agents Chemother. 43:2404-2408 (1999).

S. pneumoniae ATCC 10015 = test: as above
Protocol: as §2, §3

S. aureus K2068 = test: Minimal effective concentration (MEC) of EPI for gatifloxacin
Protocol: (§4) The MEC was determined as the minimal concentration of EPI that produced the maximal reduction in substrate MIC.
(§5) Since any given compound may be recognized by an unknown number of efflux pumps in a particular organism, we reasoned that the MEC of A-106 and C-9 should vary for different antibiotics. Also, the MEC of A-106 and C-9 should vary with the degree of efflux expression in a given strain. […] This was confirmed with two other wild type strains, SA-8325-4 and SA-1199 (Table 3).
(§6) The MEC of A-106 and C-9 for gatifloxacin was determined in these efflux mutants. […] A similar result was obtained with efflux mutant K2068, where the MEC for A-106 was 6.25 μg/ml and the MEC for C-9 was 3.1 μg/ml. […] This may reflect that either gatifloxacin is recognized by fewer pumps than EtBr or it is a poorer efflux substrate in general. This is consistent with the finding that the activity of A-106 was non-saturable for EtBr but is saturable for gatifloxacin.

S. aureus SA-1199B = test: as above
Protocol: as §4, §5, §6

[2] = tested on: S. aureus SA-1199 (clinical isolate, susceptible); test: MIC of fluoroquinolones with and without EPI; details: S. aureus SA-1199; EPI at 4X the MEC for EtBr, VX-710 at 100 μg/ml
Excerpt: as §1, §2

S. aureus SA-8325-4 = test: MIC of fluoroquinolones with and without EPI; details: S. aureus SA-8325-4; EPI at 4X the MEC for EtBr, VX-710 at 100 μg/ml
Excerpt: as §1, §2

[3] = S. aureus SA-1199B, EPI at 4X the MEC for EtBr, VX-710 at 100 μg/ml
[4] = SA-1199B, EPIs at 4 times MEC for EtBr, A-106 at 100 μg/ml
[5] = S. aureus ATCC 29213, EPI at 4X the MEC for EtBr, VX-710 at 100 μg/ml
[6] = S. aureus ATCC 29213, EPIs used at the MEC, except VX-710 at 100 μg/ml
[7] = E. faecalis ATCC 29212, EPIs used at the MEC, except VX-710 at 100 μg/ml
[8] = S. pneumoniae ATCC 10015, EPIs used at the MEC, except VX-710 at 100 μg/ml

COc1cc(C(=O)C(=O)N2CCCC[C@H]2C(=O)OC(CCCc2cccnc2)CCCc2cccnc2)cc(OC)c1OC [A-106]
MIC of gatifloxacin with EPI ([1]; S. aureus SA-1199B (NorA overproducer) (Table 4)): 0.25 µg/mL | MIC of EtBr with EPI [1, 3]: 0.4 µg/mL | MIC of ciprofloxacin with EPI [1, 3]: 0.5 µg/mL | MIC of levofloxacin with EPI [1, 3]: 0.5 µg/mL | MIC of norfloxacin with EPI [1, 3]: 2 µg/mL | reduction of MIC of ciprofloxacin [1, 4]: 2 fold | reduction of MIC of gatifloxacin [1, 4]: 2 fold | reduction of MIC of levofloxacin [1, 4]: 1 fold | reduction of MIC of norfloxacin [1, 4]: 8 fold | Fold-reduction in MIC ([1]; gatifloxacin, S. aureus SA-1199B (NorA overproducer)): 2 | MIC of gatifloxacin with EPI (S. aureus ATCC 29213; S. aureus ATCC 29213 (Table 4)): 0.125 µg/mL | effect on the MICs of gatifloxacin, erythromycin, azithromycin, chloramphenicol, ceftriaxone, and linezolid (S. aureus ATCC 29213; S. aureus ATCC 29213, Table 2): No effect | MIC of EPI (S. aureus ATCC 29213; S. aureus ATCC 29213, EPI alone): >100 µg/mL | MIC of EtBr with EPI (S. aureus ATCC 29213; [5]): 0.2 µg/mL | MIC of ciprofloxacin with EPI (S. aureus ATCC 29213; [5]): 0.063 µg/mL | MIC of gatifloxacin with EPI (S. aureus ATCC 29213; [5]): 0.063 µg/mL | MIC of gentamicin with EPI (S. aureus ATCC 29213; [5]): 0.125 µg/mL | MIC of levofloxacin with EPI (S. aureus ATCC 29213; [5]): 0.125 µg/mL | MIC of norfloxacin with EPI (S. aureus ATCC 29213; [5]): 0.125 µg/mL | Fold-reduction in EtBr MIC (S. aureus ATCC 29213; [6]): 31 | MIC of EtBr with EPI (S. aureus ATCC 29213; [6]): 0.2 µg/mL | reduction of the MIC of EtBr (S. aureus ATCC 29213; S. aureus wild type, EPI up to 100 μg/ml, data not shown): 30 fold | Fold-reduction in MIC (S. aureus ATCC 29213; gatifloxacin, S. aureus ATCC 29213): 1 | effect of EPI on the MIC of gatifloxacin (S. aureus ATCC 29213; wild type strain ATCC 29213): unaffected | MIC of EPI (E. faecalis ATCC 29212; E. faecalis ATCC 29212, EPI alone): >100 µg/mL | Fold-reduction in EtBr MIC (E. faecalis ATCC 29212; [7]): 8 | MIC of EtBr with EPI (E. faecalis ATCC 29212; [7]): 0.8 µg/mL | intrinsic antibacterial activity of EPI (E. faecalis ATCC 29212; at 100 μg/ml, E. faecalis): no intrinsic antibacterial activity | MIC of EPI (S. pneumoniae ATCC 10015; S. pneumoniae ATCC 10015, EPI alone): >100 µg/mL | Fold-reduction in EtBr MIC (S. pneumoniae ATCC 10015; [8]): ≧16 | MIC of EtBr with EPI (S. pneumoniae ATCC 10015; [8]): ≦0.125 μg/ml | intrinsic antibacterial activity of EPI (S. pneumoniae ATCC 10015; at 100 μg/ml, S. pneumoniae): no intrinsic antibacterial activity | MEC (S. aureus K2068; S. aureus K2068 (nonNorA pump overproducer), lowest amount of EPI which produces the maximum effect on the MIC of gatifloxacin): 6.25 µg/mL | MEC for gatifloxacin (S. aureus K2068; efflux mutant K2068): 6.25 µg/mL | MEC (S. aureus SA-1199B; S. aureus SA-1199B (NorA overproducer), lowest amount of EPI which produces the maximum effect on the MIC of gatifloxacin): 12.5 µg/mL | MEC for gatifloxacin (S. aureus SA-1199B; efflux mutant, strain not named in the sentence (SA-1199B by context)): 12.5 µg/mL | MIC of EtBr with EPI [2]: 0.2 µg/mL | MIC of ciprofloxacin with EPI [2]: 0.063 µg/mL | MIC of gatifloxacin with EPI [2]: 0.063 µg/mL | MIC of gentamicin with EPI [2]: 0.125 µg/mL | MIC of levofloxacin with EPI [2]: 0.125 µg/mL | MIC of norfloxacin with EPI [2]: 0.125 µg/mL | MIC of EtBr with EPI (S. aureus SA-8325-4): <0.1 µg/mL | MIC of ciprofloxacin with EPI (S. aureus SA-8325-4): 0.125 µg/mL | MIC of gatifloxacin with EPI (S. aureus SA-8325-4): 0.125 µg/mL | MIC of gentamicin with EPI (S. aureus SA-8325-4): 0.063 µg/mL | MIC of levofloxacin with EPI (S. aureus SA-8325-4): 0.25 µg/mL | MIC of norfloxacin with EPI (S. aureus SA-8325-4): 0.25 µg/mL

Reference: patent publication US20090291964A1, “Potentiators of Antibacterial Activity” (priority 2003, published 2009)
